The text below walks through data of patent US12414565B2, “Pyridazine (THIO)amides as fungicidal compounds” (Bayer Aktiengesellschaft, priority 2018, dated 2025).

Data set [1] in a line: Measurement of Log P values by HPLC on reversed phase columns (EEC directive 79/831 Annex V.A8). Type of data set: physicochemical. The procedure: Measurement of Log P values as provided herein was performed according to EEC directive 79/831 Annex V.A8 by HPLC (High Performance Liquid Chromatography) on reversed phase columns with the following methods: • ^[a]
If more than one Log P value is available within the same method, all the values are given and separated by “+”.
Lambda-max-values were determined using UV-spectra from 200 nm to 400 nm and the peak values of the chromatographic signals

In the next data set the test system is Alternaria alternata. As to the kind of experiment: Alternaria alternata in vitro cell test. Type of data set: cell-based. Particulars: 120 h, 20 ppm of active ingredient, liquid culture, 5 days incubation, absorbance, read-out: efficacy (inhibition of fungal growth). The procedure: (§1) [table] Fungicides were solubilized in DMSO and the solution used to prepare the required range of concentrations. The final concentration of DMSO used in the assay was <1%. A spore suspension of A. alternata was prepared and diluted to the desired spore density. Fungicides were evaluated for their ability to inhibit spore germination and mycelium growth in liquid culture assay. The compounds were added in the desired concentration to the culture medium with spores. After 5 days incubation, fungi-toxicity of compounds was determined by spectrometric measurement of mycelium growth. Inhibition of fungal growth was determined by comparing the absorbance values in wells containing the fungicides with the absorbance in control wells without fungicides.

The next data set relates to Botrytis cinerea. As to the kind of experiment: In vivo preventive test on Botrytis cinerea (grey mould). Particulars: 500 ppm of active ingredient, preventive spray on gherkin or cabbage, evaluated 4 to 5 days after inoculation, 100% = no disease, read-out: efficacy. As to the method:
(§2) The active ingredients were made soluble and homogenized in a mixture of Dimethyl sulfoxide/Acetone/Tween® 80 and then diluted in water to the desired concentration.
The young plants of gherkin or cabbage were treated by spraying the active ingredient prepared as described above. Control plants were treated only with an aqueous solution of Acetone/Dimethyl sulfoxide/Tween® 80.
After 24 hours, the plants were contaminated by spraying the leaves with an aqueous suspension of Botrytis cinerea spores. The contaminated gherkin plants were incubated for 4 to 5 days at 17° C. and at 90% relative humidity. The contaminated cabbage plants were incubated for 4 to 5 days at 20° C. and at 100% relative humidity.
The test was evaluated 4 to 5 days after the inoculation. 0% means an efficacy which corresponds to that of the control plants while an efficacy of 100% means that no disease was observed.

The test system of another data set is Alternaria brassicae. In words: In vivo preventive test on Alternaria brassicae (leaf spot on radish or cabbage). Particulars: 144 h, 500 ppm of active ingredient, preventive spray on radish or cabbage, evaluated 6 days after inoculation, 100% = no disease, read-out: efficacy. As to the method:
as §2
The young plants of radish or cabbage were treated by spraying the active ingredient prepared as described above. Control plants were treated only with an aqueous solution of Acetone/Dimethyl sulfoxide/Tween® 80.
After 24 hours, the plants were contaminated by spraying the leaves with an aqueous suspension of Alternaria brassicae spores. The contaminated radish or cabbage plants were incubated for 6 days at 20° C. and at 100% relative humidity.
The test was evaluated 6 days after the inoculation. 0% means an efficacy which corresponds to that of the control plants while an efficacy of 100% means that no disease was observed.

A further data set has as its system Pyrenophora teres. In words: In vivo preventive test on Pyrenophora teres (net blotch on barley). Particulars: 240 h, 500 ppm of active ingredient, preventive spray on barley, evaluated 10 days after inoculation, 100% = no disease, read-out: efficacy. As to the method: as §2
The young plants of barley were treated by spraying the active ingredient prepared as described above. Control plants were treated only with an aqueous solution of Acetone/Dimethyl sulfoxide/Tween® 80.
After 24 hours, the plants were contaminated by spraying the leaves with an aqueous suspension of Pyrenophora teres spores. The contaminated barley plants were incubated for 48 hours at 20° C. and at 100% relative humidity and then for 8 days at 20° C. and at 70-80% relative humidity.
The test was evaluated 10 days after the inoculation. 0% means an efficacy which corresponds to that of the control plants while an efficacy of 100% means that no disease was observed.

A further data set has as its system Septoria tritici. As to the kind of experiment: Septoria tritici in vitro cell test. Particulars: Zymoseptoria tritici, 168 h; 20 ppm of active ingredient; liquid culture, 7 days incubation, absorbance; read-out: efficacy (inhibition of fungal growth). Type of data set: cell-based. The procedure: as §1, with “≤1%.” for “<1%.”, “S. tritici” for “A. alternata”, “7” for “5”

The next data set relates to Sphaerotheca fuliginea. In words: In vivo preventive test on Sphaerotheca fuliginea (powdery mildew on cucurbits). Particulars: Podosphaera fuliginea, 192 h; 500 ppm of active ingredient; preventive spray on gherkin; evaluated 8 days after inoculation; 100% = no disease; read-out: efficacy. As to the method:
as §2
The young plants of gherkin were treated by spraying the active ingredient prepared as described above. Control plants were treated only with an aqueous solution of Acetone/Dimethyl sulfoxide/Tween® 80.
After 24 hours, the plants were contaminated by spraying the leaves with an aqueous suspension of Sphaerotheca fuliginea spores. The contaminated gherkin plants were incubated for 8 days at 20° C. and at 70-80% relative humidity.
The test was evaluated 8 days after the inoculation. 0% means an efficacy which corresponds to that of the control plants while an efficacy of 100% means that no disease was observed.

The test system of data set [2] is Colletotrichum lindemuthianum. In words: Colletotrichum lindemuthianum in vitro cell test. Type of data set: cell-based. Particulars: 144 h, 20 ppm of active ingredient, liquid culture, 6 days incubation, absorbance, read-out: efficacy (inhibition of fungal growth). As to the method:
as §1, with “was ≤1%.” for “was <1%.”, “of C. lindemuthianum” for “of A. alternata”, “inhibit spores” for “inhibit spore”, “After 6” for “After 5”

With `O=C(O)c1ccnnc1Oc1cccc(C(F)(F)F)c1` [1-129], the lipophilicity (LogP) (in general, the decadic logarithm of the partition coefficient of the neutral form, usually between octanol and water) in data set [1] (method [a]: LC-UV, acidic range, 0.1% formic acid in water / acetonitrile, Table 3, formula (1)) was 1.47^[a].
For the compound `Cc1ccc(C(F)(F)CNC(=O)c2cc(C)nnc2Cl)c(C)c1` [3-06], the log partition coefficient (LogP) in data set [1] (method [a]: LC-UV, acidic range, 0.1% formic acid in water / acetonitrile, Table 7, formula (3)) was 3.20^[a].
For `COCCc1c(Cl)nnc(Oc2cccc(C(F)(F)F)c2)c1C(=O)NCC(F)(F)c1ccc(Br)cc1Cl` [I-070, N-[2-(4-bromo-2-chloro-phenyl)-2,2-difluoro-ethyl]-6-chloro-5-(2-methoxyethyl)-3-[3-(trifluoromethyl)phenoxy]pyridazine-4-carboxamide], the inhibition at 20 ppm (with Alternaria alternata; in the data set with Septoria tritici; in data set [2]) was 90 to 100% in each case. Also, the pest or weed control at 500 ppm in the data set on Botrytis cinerea, in the data set with Alternaria brassicae, with Pyrenophora teres and with Sphaerotheca fuliginea was 90 to 100% in each case.
`O=C(NCC(F)(F)c1ccc(Br)cc1Cl)c1cc(C2CC2)nnc1Oc1cccc(C(F)(F)F)c1` [I-312]: the LogP is 4.79 in data set [1] (method [a]) and 4.68 in data set [1] (method [b]).
Turning to `Cc1cc(C(=O)NCCc2ccc(C(F)F)cn2)c(Oc2cccc(C(F)(F)F)c2)nn1` [I-525], the LogP in data set [1] (LogP method [a]) stood at 2.57; in data set [1] (LogP method [b]), 2.71.
As for `Cc1ccc(C(F)(F)CNC(=O)c2c(Oc3cccc(C(F)(F)F)c3)nnc(Cl)c2-c2cccnc2)c(C)c1` [I-550, 6-chloro-N-[2-(2,4-dimethylphenyl)-2,2-difluoro-ethyl]-5-(3-pyridyl)-3-[3-(trifluoromethyl)phenoxy]pyridazine-4-carboxamide], the inhibition at 20 ppm (in the data set on Alternaria alternata; in the data set with Septoria tritici; in data set [2]) was 90 to 100% in each case. In addition, the pest or weed control at 500 ppm with Botrytis cinerea, in the data set on Alternaria brassicae and in the data set on Sphaerotheca fuliginea was 90 to 100% in each case.
On to `Cc1ccc(C(F)(F)CNC(=O)c2c(Oc3cccc(Cl)c3)nnc(Cl)c2C)c(C)c1` [I-790, 6-chloro-3-(3-chlorophenoxy)-N-[2-(2,4-dimethylphenyl)-2,2-difluoro-ethyl]-5-methyl-pyridazine-4-carboxamide], for which the inhibition (in general, the drop in the measured response relative to a control, in per cent) at 20 ppm in the data set with Alternaria alternata is 90 to 100%; in the data set on Septoria tritici, 70 to 79%; in data set [2], 90 to 100%. In addition, the pest or weed control at 500 ppm in the data set with Botrytis cinerea, with Alternaria brassicae and in the data set with Sphaerotheca fuliginea was 90 to 100% throughout.
For `Cc1ccc(C(F)(F)CNC(=O)c2c(Oc3cccc(C(F)(F)F)c3)nnc(Cl)c2NC2CC2C2CC2)c(C)c1` (stereo not drawn) [I-812], the log partition coefficient (LogP) in data set [1] (method [a]) was 4.87^[a].
Take `Cc1ccc(C(F)(F)CNC(=O)c2c(Oc3cccc(C4CC4)c3F)nnc(Cl)c2C)c(Br)c1` [I-840]: the LogP in data set [1] (method marked [a], HPLC on reversed phase columns) is 4.57^[a].
